Key:
Format in all cases: physicochemical
[1] = Adsorption of the STING agonist and the antigen on Al(OH)3 (supernatant after centrifugation); conditions: groups 5, 6, 7, 8: 45, 15, 5 μg/ml STING agonist with 111 μg/ml Al(OH)3, or 15 μg/ml with 35 μg/ml Al(OH)3; antigen 20 μg/mL
Description: (§1) The compatibility between the antigen and the STING agonist was assessed, on the one hand, by determining the amount of the STING agonist recovered (using HPLC) in the supernatant after centrifugation of the formulations described in the above groups 2, 3 and 4, and, on the other hand, by determining the amount and profile of the antigen recovered (using HPLC) in the supernatant after centrifugation of the formulations described in the above groups 2, 3 and 4. The adsorption of the STING agonist and the antigen on Al(OH)3 was similarly assessed by determining the amount of STING agonist and amount and profile of the antigen, respectively, recovered) in the supernatant after centrifugation of the formulations described in the above groups 5, 6, 7 and 8. The concentration of the HSV-2 gE-gI antigen was 20 μg/mL in each group. The precise methodology for preparing the STING agonist and Al(OH)3 formulation was as follows: a solution of Al(OH)3 in water for injection was prepared, the required amount of STING agonist was added, the required amount of HSV-2 gE-gI to have 20 μg/mL in final solution was added. The solution was then mixed for 30 minutes at room temperature. NaCl was added, and the mixture was mixed for 5 minutes.

[2] = Minimal amount of Al(OH)3 needed to fully adsorb the STING agonist (fluorometry of supernatant); conditions: STING agonist 45 μg/ml, Al(OH)3 0 to 200 μg/ml (by reference to Al3+)
Description: 1.2 Next, the minimal amount of Al(OH)3 needed to fully adsorb the STING agonist was determined. Compound 1 was used. The amount of the STING agonist was fixed at 45 μg/ml and AL(OH)3 varied from 0 to 200 μg/ml (by reference to Al^3+), so that different ratios STING agonist:Al(OH)3 were tested. The different formulations (as indicated in Table 2) were mixed under agitation for 1 h. Samples were then centrifuged for 10 min at 8000 rpm. The supernatant of the centrifuged samples was then analysed to characterize the amount of STING agonist which was not adsorbed. The quantification was performed by fluorometry.

[3] = Compatibility between the antigen and the STING agonist (HPLC, SDS PAGE of supernatant after centrifugation); conditions: groups 2, 3, 4: 45, 15, 5 μg/ml STING agonist aqueous, 20 μg/mL HSV-2 gE-gI, no added Al(OH)3
Description: as §1

CCn1nc(C)cc1C(=O)/N=c1\[nH]c2cc(C(N)=O)cc(OC)c2n1C/C=C/Cn1/c(=N/C(=O)c2cc(C)nn2CC)[nH]c2cc(C(N)=O)cc(OCCCOP(=O)(O)O)c21 [Compound 1, 3-(((E)-6-carbamoyl-3-((E)-4-((E)-5-carbamoyl-2-((1-ethyl-3-methyl-1H-pyrazole-5-carbonyl)imino)-7-methoxy-2,3-dihydro-1H-benzo[d]imidazol-1-yl)but-2-en-1-yl)-2-((1-ethyl-3-methyl-1H-pyrazole-5-carbonyl)imino)-2,3-dihydro-1H-benzo[d]imidazol-4-yl)oxy)propyl dihydrogen phosphate]
adsorption of STING agonist on Al(OH)3 (STING agonist in supernatant) [1]: entire amount of the STING agonist was adsorbed on Al(OH)3
adsorption of STING agonist on Al(OH)3 (in words) [2]: generally well adsorbed on Al(OH)3
maximum ratio STING agonist to aluminium hydroxide allowing for an optimal adsorption [2]: about 1.5
amount of STING agonist in supernatant of centrifuged vs non-centrifuged samples [3]: no aggregation or precipitation occurs in the presence of the antigen

Reference: patent US20260083838A1, “Adjuvant Composition Comprising STING Agonists” (GlaxoSmithKline Biologicals SA, priority 2021, published 2026)
